What was measured:
Assay type in all cases: in vivo
[1] = test system: barnyardgrass (Echinochloa crus-galli); assay: Test G Pre-Emergence Protocol; settings: Echinochloa crus-galli, pre-emergence, 312 h, evaluated after 13 days
Procedure, shortened: (§1)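 One day after sowing, pots are treated with a spray of test compound formulated in acetone/water 50:50 plus 0.5% Tween 20, giving 15.625, 62.5 or 250 g/ha. Evaluation on a 0–100 damage scale follows 13 days of glasshouse growth.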

corn (Zea mays) [2] = assay: Test G Pre-Emergence Protocol; settings: Zea mays, pre-emergence, 312 h, evaluated after 13 days
Procedure, shortened: as §1

[3] = test system: giant foxtail (Setaria faberi); assay: Test G Pre-Emergence Protocol; settings: Setaria faberi, pre-emergence, 312 h, evaluated after 13 days
Procedure, shortened: as §1

[4] = test system: ivy-leaved morning glory (Ipomoea hederacea); assay: Test G Pre-Emergence Protocol; settings: Ipomoea, pre-emergence, 312 h, evaluated after 13 days
Procedure, shortened: as §1

[5] = test system: redroot pigweed (Amaranthus retroflexus); assay: Test G Pre-Emergence Protocol; settings: Amaranthus retroflexus, pre-emergence, 312 h, evaluated after 13 days
Procedure, shortened: as §1

[6] = test system: velvetleaf (Abutilon theophrasti); assay: Test G Pre-Emergence Protocol; settings: Abutilon theophrasti, pre-emergence, 312 h, evaluated after 13 days
Procedure, shortened: as §1

[7] = test system: barnyardgrass (Echinochloa crus-galli); assay: Test G Post-Emergence Protocol; settings: Echinochloa crus-galli, post-emergence, 312 h, read-out: Barnyardgrass damage rating
Procedure, shortened: (§2)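 Eight days post-sowing, plants received a spray of test compound (acetone/water 50:50, 0.5% Tween 20) at 15.625, 62.5 or 250 g/ha. Glasshouse regime thereafter: 24/16 °C, 14 h light, 65% humidity. Assessment after 13 days on a 0–100 damage scale.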

corn (Zea mays) [8] = assay: Test G Post-Emergence Protocol; settings: Zea mays, post-emergence, 312 h, read-out: Corn damage rating
Procedure, shortened: as §2

[9] = test system: giant foxtail (Setaria faberi); assay: Test G Post-Emergence Protocol; settings: Setaria faberi, post-emergence, 312 h, read-out: Foxtail, Giant damage rating
Procedure, shortened: as §2

[10] = test system: ivy-leaved morning glory (Ipomoea hederacea); assay: Test G Post-Emergence Protocol; settings: Ipomoea, post-emergence, 312 h, read-out: Morningglory, Ivy-leaved damage rating
Procedure, shortened: as §2

[11] = test system: redroot pigweed (Amaranthus retroflexus); assay: Test G Post-Emergence Protocol; settings: Amaranthus retroflexus, post-emergence, 312 h, read-out: Pigweed, Redroot damage rating
Procedure, shortened: as §2

[12] = test system: velvetleaf (Abutilon theophrasti); assay: Test G Post-Emergence Protocol; settings: Abutilon theophrasti, post-emergence, 312 h, read-out: Velvetleaf damage rating
Procedure, shortened: as §2

[13] = 15.625 g ai/ha, evaluated after 13 days (100=total damage to plant; 0=no damage to plant)
[14] = 62.5 g ai/ha, evaluated after 13 days, 100=total damage to plant, 0=no damage to plant
[15] = 250 g ai/ha, evaluated after 13 days, 100=total damage to plant, 0=no damage to plant

Cc1ccc([C@H]2CN(C)C(=O)[C@@H]2C(=O)Nc2cccc3c2S(=O)(=O)CC3)cc1 (racemic) [Compound 1739]
0%: pest or weed control at 15.625 g/ha ([1]; 15.625 g ai/ha, read-out: Barnyardgrass damage rating (100=total damage to plant; 0=no damage to plant)) | pest or weed control at 62.5 g/ha ([1]; 62.5 g ai/ha, 100=total damage to plant, 0=no damage to plant, read-out: Barnyardgrass damage rating) | pest or weed control at 250 g/ha ([1]; 250 g ai/ha, read-out: Barnyardgrass damage rating (100=total damage to plant; 0=no damage to plant)) | plant injury at 15.625 g/ha (corn (Zea mays) [2]; 15.625 g ai/ha, read-out: Corn damage rating (100=total damage to plant; 0=no damage to plant)) | plant injury at 62.5 g/ha (corn (Zea mays) [2]; 62.5 g ai/ha, 100=total damage to plant, 0=no damage to plant, read-out: Corn damage rating) | plant injury at 250 g/ha (corn (Zea mays) [2]; 250 g ai/ha, read-out: Corn damage rating (100=total damage to plant; 0=no damage to plant)) | pest or weed control at 15.625 g/ha ([3]; 15.625 g ai/ha, read-out: Foxtail, Giant damage rating (100=total damage to plant; 0=no damage to plant)) | pest or weed control at 62.5 g/ha ([3]; 62.5 g ai/ha, 100=total damage to plant, 0=no damage to plant, read-out: Foxtail, Giant damage rating) | pest or weed control at 250 g/ha ([3]; 250 g ai/ha, read-out: Foxtail, Giant damage rating (100=total damage to plant; 0=no damage to plant)) | pest or weed control at 15.625 g/ha ([4]; 15.625 g ai/ha, read-out: Morningglory, Ivy-leaved damage rating (100=total damage to plant; 0=no damage to plant)) | pest or weed control at 62.5 g/ha ([4]; 62.5 g ai/ha, 100=total damage to plant, 0=no damage to plant, read-out: Morningglory, Ivy-leaved damage rating) | pest or weed control at 250 g/ha ([4]; 250 g ai/ha, read-out: Morningglory, Ivy-leaved damage rating (100=total damage to plant; 0=no damage to plant)) | pest or weed control at 15.625 g/ha ([5]; 15.625 g ai/ha, read-out: Pigweed, Redroot damage rating (100=total damage to plant; 0=no damage to plant)) | pest or weed control at 62.5 g/ha ([5]; 62.5 g ai/ha, 100=total damage to plant, 0=no damage to plant, read-out: Pigweed, Redroot damage rating) | pest or weed control at 250 g/ha ([5]; 250 g ai/ha, read-out: Pigweed, Redroot damage rating (100=total damage to plant; 0=no damage to plant)) | pest or weed control at 15.625 g/ha ([6]; 15.625 g ai/ha, read-out: Velvetleaf damage rating (100=total damage to plant; 0=no damage to plant)) | pest or weed control at 62.5 g/ha ([6]; 62.5 g ai/ha, 100=total damage to plant, 0=no damage to plant, read-out: Velvetleaf damage rating) | pest or weed control at 250 g/ha ([6]; 250 g ai/ha, read-out: Velvetleaf damage rating (100=total damage to plant; 0=no damage to plant)) | pest or weed control at 15.625 g/ha [7, 13] | pest or weed control at 62.5 g/ha [7, 14] | pest or weed control at 250 g/ha [7, 15] | plant injury at 15.625 g/ha (corn (Zea mays) [8]; [13]) | plant injury at 62.5 g/ha (corn (Zea mays) [8]; [14]) | plant injury at 250 g/ha (corn (Zea mays) [8]; [15]) | pest or weed control at 15.625 g/ha [9, 13] | pest or weed control at 62.5 g/ha [9, 14] | pest or weed control at 250 g/ha [9, 15] | pest or weed control at 15.625 g/ha [10, 13] | pest or weed control at 62.5 g/ha [10, 14] | pest or weed control at 250 g/ha [10, 15] | pest or weed control at 15.625 g/ha [11, 13] | pest or weed control at 62.5 g/ha [11, 14] | pest or weed control at 250 g/ha [11, 15] | pest or weed control at 15.625 g/ha [12, 13] | pest or weed control at 62.5 g/ha [12, 14] | pest or weed control at 250 g/ha [12, 15]

— patent publication US12077503B2, “Substituted cyclic amides and their use as herbicides” (FMC CORPORATION, priority 2015, dated 2024)
